From PubChem BioAssay (NCI)
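Tested at 5 concentrations; 48 h exposure; 96-well plates; endpoints linearly interpolated, else capped at highest concentration. The concentration for 50% growth inhibition is given as GI50. At the TGI there is no net growth.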

Tested on: RPMI-8226 leukemia
Test: NCI anticancer screen, dose series, 48 h

SMILES	TGI	GI50
COc1ccc2c3c1O[C@H]1C(OC)C=CC4C(C2)N(Cc2cccs2)CCC341 (stereo partly specified)	> 100 µM	
Nc1nc(SCCc2ccccc2)nc2nc3c(c(-c4ccccc4)c12)CCCC3	> 100 µM	
C=CCOC(=O)NC1C(OC(C)[C@@H](NC(=O)OCc2ccccc2)C(=O)OC(C)(C)C)OC(COC(C)=O)C(OC(C)=O)C1OC(C)=O (stereo partly specified)	> 100 µM	
O=c1[nH]nc(NNc2ccccc2)c2nnn(C3CCCCC3)c12	> 100 µM	
C=C1/C(=C\C=C2/CCC[C@]3(C)[C@@H]([C@H](C)CCCC(C)(C)O)CC[C@@H]23)C[C@@H](OC(=O)CBr)C[C@@H]1O	2.48 µM	0.293 µM
COc1ccc(-n2c(=O)[nH]n(C(C)=O)c2=O)cc1	> 100 µM	
O=C(c1ccc(Cl)cc1)N(C(=O)N1CCC(c2ccccc2)CC1)c1ccccc1	52.3 µM	

Tested on: OVCAR-4 ovarian
Test: NCI anticancer screen, dose series, 48 h

SMILES	TGI	GI50
Nc1nc(SCCc2ccccc2)nc2nc3c(c(-c4ccccc4)c12)CCCC3	> 100 µM	
C=CCOC(=O)NC1C(OC(C)[C@@H](NC(=O)OCc2ccccc2)C(=O)OC(C)(C)C)OC(COC(C)=O)C(OC(C)=O)C1OC(C)=O (stereo partly specified)	> 100 µM	
O=c1[nH]nc(NNc2ccccc2)c2nnn(C3CCCCC3)c12	> 100 µM	
C=C1/C(=C\C=C2/CCC[C@]3(C)[C@@H]([C@H](C)CCCC(C)(C)O)CC[C@@H]23)C[C@@H](OC(=O)CBr)C[C@@H]1O	1.6 µM	0.329 µM
COc1ccc(-n2c(=O)[nH]n(C(C)=O)c2=O)cc1	> 100 µM	

Tested on: MCF7 breast
Test: NCI anticancer screen, dose series, 48 h

SMILES	TGI	GI50
Nc1nc(SCCc2ccccc2)nc2nc3c(c(-c4ccccc4)c12)CCCC3	> 100 µM	
C=CCOC(=O)NC1C(OC(C)[C@@H](NC(=O)OCc2ccccc2)C(=O)OC(C)(C)C)OC(COC(C)=O)C(OC(C)=O)C1OC(C)=O (stereo partly specified)	> 100 µM	
O=c1[nH]nc(NNc2ccccc2)c2nnn(C3CCCCC3)c12	> 100 µM	
C=C1/C(=C\C=C2/CCC[C@]3(C)[C@@H]([C@H](C)CCCC(C)(C)O)CC[C@@H]23)C[C@@H](OC(=O)CBr)C[C@@H]1O	5.74 µM	1.38 µM
COc1ccc(-n2c(=O)[nH]n(C(C)=O)c2=O)cc1	> 100 µM	
O=C(c1ccc(Cl)cc1)N(C(=O)N1CCC(c2ccccc2)CC1)c1ccccc1	> 100 µM	

Tested on: DU-145 prostate
Test: NCI anticancer screen, dose series, 48 h

SMILES	TGI	GI50
Nc1nc(SCCc2ccccc2)nc2nc3c(c(-c4ccccc4)c12)CCCC3	> 100 µM	
C=CCOC(=O)NC1C(OC(C)[C@@H](NC(=O)OCc2ccccc2)C(=O)OC(C)(C)C)OC(COC(C)=O)C(OC(C)=O)C1OC(C)=O (stereo partly specified)	> 100 µM	
O=c1[nH]nc(NNc2ccccc2)c2nnn(C3CCCCC3)c12	> 100 µM	
C=C1/C(=C\C=C2/CCC[C@]3(C)[C@@H]([C@H](C)CCCC(C)(C)O)CC[C@@H]23)C[C@@H](OC(=O)CBr)C[C@@H]1O	26.6 µM	12.4 µM
COc1ccc(-n2c(=O)[nH]n(C(C)=O)c2=O)cc1	> 100 µM	
O=C(c1ccc(Cl)cc1)N(C(=O)N1CCC(c2ccccc2)CC1)c1ccccc1	> 100 µM	

Tested on: NCI-H23 lung
Test: NCI anticancer screen, dose series, 48 h

SMILES	TGI	GI50
COc1ccc2c3c1O[C@H]1C(OC)C=CC4C(C2)N(Cc2cccs2)CCC341 (stereo partly specified)	> 100 µM	
Nc1nc(SCCc2ccccc2)nc2nc3c(c(-c4ccccc4)c12)CCCC3	> 100 µM	
C=CCOC(=O)NC1C(OC(C)[C@@H](NC(=O)OCc2ccccc2)C(=O)OC(C)(C)C)OC(COC(C)=O)C(OC(C)=O)C1OC(C)=O (stereo partly specified)	> 100 µM	
O=c1[nH]nc(NNc2ccccc2)c2nnn(C3CCCCC3)c12	> 100 µM	
C=C1/C(=C\C=C2/CCC[C@]3(C)[C@@H]([C@H](C)CCCC(C)(C)O)CC[C@@H]23)C[C@@H](OC(=O)CBr)C[C@@H]1O	2.31 µM	0.386 µM
COc1ccc(-n2c(=O)[nH]n(C(C)=O)c2=O)cc1	> 100 µM	
O=C(c1ccc(Cl)cc1)N(C(=O)N1CCC(c2ccccc2)CC1)c1ccccc1	> 100 µM	

Tested on: HT29 colon
Test: NCI anticancer screen, dose series, 48 h

SMILES	TGI	GI50
COc1ccc2c3c1O[C@H]1C(OC)C=CC4C(C2)N(Cc2cccs2)CCC341 (stereo partly specified)	> 100 µM	
Nc1nc(SCCc2ccccc2)nc2nc3c(c(-c4ccccc4)c12)CCCC3	> 100 µM	
C=CCOC(=O)NC1C(OC(C)[C@@H](NC(=O)OCc2ccccc2)C(=O)OC(C)(C)C)OC(COC(C)=O)C(OC(C)=O)C1OC(C)=O (stereo partly specified)	> 100 µM	
O=c1[nH]nc(NNc2ccccc2)c2nnn(C3CCCCC3)c12	> 100 µM	
C=C1/C(=C\C=C2/CCC[C@]3(C)[C@@H]([C@H](C)CCCC(C)(C)O)CC[C@@H]23)C[C@@H](OC(=O)CBr)C[C@@H]1O	10.5 µM	1.15 µM
COc1ccc(-n2c(=O)[nH]n(C(C)=O)c2=O)cc1	> 100 µM	
O=C(c1ccc(Cl)cc1)N(C(=O)N1CCC(c2ccccc2)CC1)c1ccccc1	> 100 µM	

Tested on: SN12C renal
Test: NCI anticancer screen, dose series, 48 h

SMILES	TGI	GI50
COc1ccc2c3c1O[C@H]1C(OC)C=CC4C(C2)N(Cc2cccs2)CCC341 (stereo partly specified)	> 100 µM	
Nc1nc(SCCc2ccccc2)nc2nc3c(c(-c4ccccc4)c12)CCCC3	> 100 µM	
C=CCOC(=O)NC1C(OC(C)[C@@H](NC(=O)OCc2ccccc2)C(=O)OC(C)(C)C)OC(COC(C)=O)C(OC(C)=O)C1OC(C)=O (stereo partly specified)	> 100 µM	
O=c1[nH]nc(NNc2ccccc2)c2nnn(C3CCCCC3)c12	> 100 µM	
C=C1/C(=C\C=C2/CCC[C@]3(C)[C@@H]([C@H](C)CCCC(C)(C)O)CC[C@@H]23)C[C@@H](OC(=O)CBr)C[C@@H]1O	11.9 µM	4.93 µM
COc1ccc(-n2c(=O)[nH]n(C(C)=O)c2=O)cc1	> 100 µM	
